# Assay results as given in patent publication US20230382889A1 (Volastra Therapeutics, Inc., priority 2022, published 2023).
# Target: hKIF18A (1-374) (Homo sapiens (Human), UniProt Q8NI77)
# Test: Inhibition of KIF18A microtubule-dependent ATPase activity (ADP-Glo)
# Type: biochemical
# Details: 4 nM hKIF18A (1-374)
# Experimental: Test compounds were plated in a 3× dilution scheme in a 384-well plate. Assay buffer: 80 mM PIPES (pH 6.9), 1 mM MgCl2, 75 mM KCl, 1 mM EGTA, 1 mM DTT, 0.01% BSA, 0.005% Tween-20, 1 μM Taxol in H2O. […] After incubation at room temperature for 30 min, 2.5 μL of microtubule mix was added [0.2 mg/mL pre-formed microtubules, 2.0 mM ATP in assay buffer], the plate was centrifuged for 30 s and then incubated at 28° C. for 60 min. 5 μL of Promega® ADP-Glo Max R1 was added, the plate was centrifuged for 30 s, and the mixture incubated for 4 h at room temperature. 10 μL of Promega® ADP-Glo Max R2 was added, the plate centrifuged for 30 s, and incubated for 60 min at room temperature. Luminescence was measured with an Envision plate reader, and % Inhibition was calculated for each well as: ([max−min]−[test−min])/[max−min]. IC50 values were calculated from concentration vs. % Inhibition data via a four-parameter variable slope model.
# hKIF18A (1-374), sequence (Q8NI77 1-374): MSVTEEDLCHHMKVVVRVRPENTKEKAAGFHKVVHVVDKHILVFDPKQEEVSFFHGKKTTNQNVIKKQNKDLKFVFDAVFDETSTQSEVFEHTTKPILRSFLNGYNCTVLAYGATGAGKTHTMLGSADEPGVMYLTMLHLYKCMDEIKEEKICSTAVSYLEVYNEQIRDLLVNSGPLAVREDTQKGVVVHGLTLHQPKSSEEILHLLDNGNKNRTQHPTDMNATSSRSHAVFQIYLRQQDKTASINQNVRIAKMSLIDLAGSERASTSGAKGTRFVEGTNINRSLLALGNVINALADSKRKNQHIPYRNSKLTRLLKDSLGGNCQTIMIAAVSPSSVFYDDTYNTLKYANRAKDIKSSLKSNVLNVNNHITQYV
row,Structure (SMILES),IC50 [nM]
1,"O=S(=O)(CCO)Nc1ccc(-n2cc(-c3ccc(C(O)C4CCCC4)o3)nn2)c(N2CCC3(CC2)CC3)c1 (single isomer, unassigned) [Compound 51a]",2.4
2,"O=S(=O)(CCO)Nc1ccc(-n2cc(-c3ccc(C(O)C4CCCC4)o3)nn2)c(N2CCC3(CC2)CC3)c1 (single isomer, unassigned) [Compound 51b]",3.1
3,"CS(=O)(=O)Nc1ccc(-c2nnc(-c3cccc4c3OCCC4)[nH]2)c(N2CCC3(CC2)CC3)c1 [Compound 3, N-(4-(5-(chroman-8-yl)-4H-1,2,4-triazol-3-yl)-3-(6-azaspiro[2.5]octan-6-yl)phenyl)methanesulfonamide]",280
4,"c1cc(-c2nnc(-c3cccnc3N3CCC4(CC3)CC4)[nH]2)nc(N2CCOCC2)c1 [Compound 4, 4-(6-(5-(2-(6-azaspiro[2.5]octan-6-yl)pyridin-3-yl)-4H-1,2,4-triazol-3-yl)pyridin-2-yl)morpholine]",5600
5,"Cc1cc(-c2nnc(-c3ccc(NS(C)(=O)=O)cc3N3CCC4(CC3)CC4)[nH]2)nc(N2CCOCC2)n1 [Compound 6, N-(4-(5-(6-methyl-2-morpholinopyrimidin-4-yl)-4H-1,2,4-triazol-3-yl)-3-(6-azaspiro[2.5]octan-6-yl)phenyl)methanesulfonamide]",25
6,"CCOC(=O)CS(=O)(=O)Nc1ccc(-c2nnc(-c3cccc(N4CCC(F)(F)CC4)n3)[nH]2)c(N2CCC3(CC2)CC3)c1 [Compound 7, ethyl 2-(N-(4-(5-(6-(4,4-difluoropiperidin-1-yl)pyridin-2-yl)-4H-1,2,4-triazol-3-yl)-3-(6-azaspiro[2.5]octan-6-yl)phenyl)sulfamoyl)acetate]",83
7,"O=S(=O)(CCO)Nc1ccc(-c2nnc(-c3cccc(N4CCC(F)(F)CC4)n3)[nH]2)c(N2CCC3(CC2)CC3)c1 [Compound 8, N-(4-(5-(6-(4,4-difluoropiperidin-1-yl)pyridin-2-yl)-4H-1,2,4-triazol-3-yl)-3-(6-azaspiro[2.5]octan-6-yl)phenyl)-2-hydroxyethane-1-sulfonamide]",5.1
8,"CC(C)(C)NS(=O)(=O)c1cccc(-c2cn(-c3ccc(NS(C)(=O)=O)cc3N3CCC4(CC3)CC4)nn2)c1 [Compound 12, N-(tert-butyl)-3-(1-(4-(methylsulfonamido)-2-(6-azaspiro[2.5]octan-6-yl)phenyl)-1H-1,2,3-triazol-4-yl)benzenesulfonamide]",9.1
9,"Cc1cc(-c2cn(-c3ccc(NS(C)(=O)=O)cc3N3CCC4(CC3)CC4)nn2)nc(N2CCC(F)(F)CC2)c1 [Compound 14, N-(4-(4-(6-(4,4-difluoropiperidin-1-yl)-4-methylpyridin-2-yl)-1H-1,2,3-triazol-1-yl)-3-(6-azaspiro[2.5]octan-6-yl)phenyl)methanesulfonamide]",39
10,"CS(=O)(=O)Nc1ccc(-n2cc(-c3cccc(N4CCC(F)(F)CC4)n3)nn2)c(N2CCCC2)c1 [Compound 16, N-(4-(4-(6-(4,4-difluoropiperidin-1-yl)pyridin-2-yl)-1H-1,2,3-triazol-1-yl)-3-(pyrrolidin-1-yl)phenyl)methanesulfonamide]",1100
11,"CS(=O)(=O)Nc1ccc(-n2cc(-c3cccc(N4CCC(F)(F)CC4)n3)cn2)c(N2CCC3(CC2)CC3)c1 [Compound 17, N-(4-(4-(6-(4,4-difluoropiperidin-1-yl)pyridin-2-yl)-1H-pyrazol-1-yl)-3-(6-azaspiro[2.5]octan-6-yl)phenyl)methanesulfonamide]",29
12,"CC1CCN(c2cc(NS(C)(=O)=O)ccc2-n2cc(-c3cccc(N4CCC(F)(F)CC4)n3)nn2)CC1 [Compound 18, N-(4-(4-(6-(4,4-difluoropiperidin-1-yl)pyridin-2-yl)-1H-1,2,3-triazol-1-yl)-3-(4-methylpiperidin-1-yl)phenyl)methanesulfonamide]",8.7
13,"CS(=O)(=O)Nc1ccc(-n2cc(-c3cccc(N4CCC(F)(F)CC4)n3)nn2)c(N2CCC(C(F)F)CC2)c1 [Compound 19, N-(3-(4-(difluoromethyl)piperidin-1-yl)-4-(4-(6-(4,4-difluoropiperidin-1-yl)pyridin-2-yl)-1H-1,2,3-triazol-1-yl)phenyl)methanesulfonamide]",14
14,"CS(=O)(=O)Nc1ccc(-n2cc(-c3cccc(N4CCC(F)(F)CC4)n3)nn2)c(N2CCC(C(F)(F)F)CC2)c1 [Compound 20, N-(4-(4-(6-(4,4-difluoropiperidin-1-yl)pyridin-2-yl)-1H-1,2,3-triazol-1-yl)-3-(4-(trifluoromethyl)piperidin-1-yl)phenyl)methanesulfonamide]",23
15,"Cc1cc(-c2cn(-c3ccc(NS(C)(=O)=O)cc3N3CCC4(CC3)CC4)nn2)nc(N2CCC(F)(F)CC2)n1 [Compound 21, N-(4-(4-(2-(4,4-difluoropiperidin-1-yl)-6-methylpyrimidin-4-yl)-1H-1,2,3-triazol-1-yl)-3-(6-azaspiro[2.5]octan-6-yl)phenyl)methanesulfonamide]",32
16,"CS(=O)(=O)Nc1ccc(-n2cc(-c3cccc(C(O)C4CCCC4)n3)nn2)c(N2CCC3(CC2)CC3)c1 (stereo not shown) [Compound 22, N-(4-(4-(6-(cyclopentyl(hydroxy)methyl)pyridin-2-yl)-1H-1,2,3-triazol-1-yl)-3-(6-azaspiro[2.5]octan-6-yl)phenyl)methanesulfonamide]",11
17,"CS(=O)(=O)Nc1ccc(-n2cc(-c3cccc(CN4CCC(F)(F)CC4)n3)nn2)c(N2CCC3(CC2)CC3)c1 [Compound 23, N-(4-(4-(6-((4,4-difluoropiperidin-1-yl)methyl)pyridin-2-yl)-1H-1,2,3-triazol-1-yl)-3-(6-azaspiro[2.5]octan-6-yl)phenyl)methanesulfonamide]",11
18,"CS(=O)(=O)Nc1ccc(-n2cc(-c3ccc(C(O)C4CCCC4)o3)nn2)c(N2CCC3(CC2)CC3)c1 (stereo not shown) [Compound 25, N-(4-(4-(5-(cyclopentyl(hydroxy)methyl)furan-2-yl)-1H-1,2,3-triazol-1-yl)-3-(6-azaspiro[2.5]octan-6-yl)phenyl)methanesulfonamide]",4.7
19,"Cc1cc(-c2cnc(-c3ccc(NS(C)(=O)=O)cc3N3CCC4(CC3)CC4)[nH]2)nc(N2CCC(F)(F)CC2)n1 [Compound 26, N-(4-(5-(2-(4,4-difluoropiperidin-1-yl)-6-methylpyrimidin-4-yl)-1H-imidazol-2-yl)-3-(6-azaspiro[2.5]octan-6-yl)phenyl)methanesulfonamide]",44
20,"CS(=O)(=O)Nc1ccc(-c2cnc(-c3cccc(N4CCOCC4)n3)[nH]2)c(N2CCC3(CC2)CC3)c1 [Compound 27, N-(4-(2-(6-morpholinopyridin-2-yl)-1H-imidazol-5-yl)-3-(6-azaspiro[2.5]octan-6-yl)phenyl)methanesulfonamide]",> 3000
21,"Cc1cc(-c2cnc(-c3ccc(NS(C)(=O)=O)cc3N3CCC4(CC3)CC4)[nH]2)nc(N2CCC(F)(F)CC2)c1 [Compound 28, N-(4-(5-(6-(4,4-difluoropiperidin-1-yl)-4-methylpyridin-2-yl)-1H-imidazol-2-yl)-3-(6-azaspiro[2.5]octan-6-yl)phenyl)methanesulfonamide]",45
22,"CS(=O)(=O)Nc1ccc(-c2ncc(-c3cccc(N4CC5C(C4)C5(F)F)n3)[nH]2)c(N2CCC3(CC2)CC3)c1 (stereo not shown) [Compound 30, N-(4-(5-(6-(6,6-difluoro-3-azabicyclo[3.1.0]hexan-3-yl)pyridin-2-yl)-1H-imidazol-2-yl)-3-(6-azaspiro[2.5]octan-6-yl)phenyl)methanesulfonamide]",21
23,"CS(=O)(=O)Nc1ccc(-c2ncc(-c3cccc(NC4CC(F)(F)C4)n3)[nH]2)c(N2CCC3(CC2)CC3)c1 [Compound 32, N-(4-(5-(6-((3,3-difluorocyclobutyl)amino)pyridin-2-yl)-1H-imidazol-2-yl)-3-(6-azaspiro[2.5]octan-6-yl)phenyl)methanesulfonamide]",140
24,"CS(=O)(=O)Nc1ccc(-c2ncc(-c3cccc(N4CC(F)(F)C4)n3)[nH]2)c(N2CCC3(CC2)CC3)c1 [Compound 33, N-(4-(5-(6-(3,3-difluoroazetidin-1-yl)pyridin-2-yl)-1H-imidazol-2-yl)-3-(6-azaspiro[2.5]octan-6-yl)phenyl)methanesulfonamide]",36
25,"CC(C)(C)NS(=O)(=O)c1cccc(-c2cnc(-c3ccc(NS(C)(=O)=O)cc3N3CCC4(CC3)CC4)[nH]2)c1 [Compound 34, N-(tert-butyl)-3-(2-(4-(methylsulfonamido)-2-(6-azaspiro[2.5]octan-6-yl)phenyl)-1H-imidazol-5-yl)benzenesulfonamide]",74
26,"O=S(=O)(CCO)Nc1ccc(-c2ncc(-c3cccc(N4CCC(F)(F)CC4)n3)[nH]2)c(N2CCC3(CC2)CC3)c1 [Compound 35, N-(4-(5-(6-(4,4-difluoropiperidin-1-yl)pyridin-2-yl)-1H-imidazol-2-yl)-3-(6-azaspiro[2.5]octan-6-yl)phenyl)-2-hydroxyethane-1-sulfonamide]",27
27,"CS(=O)(=O)Nc1ccc(-n2cc(-c3ccn(C4CCC(F)(F)CC4)n3)nn2)c(N2CCC3(CC2)CC3)c1 [Compound 41, N-(4-(4-(1-(4,4-difluorocyclohexyl)-1H-pyrazol-3-yl)-1H-1,2,3-triazol-1-yl)-3-(6-azaspiro[2.5]octan-6-yl)phenyl)methanesulfonamide]",16
28,"CS(=O)(=O)Nc1ccc(-n2cc(-c3cccc(N4CCC(F)(F)CC4)n3)nn2)c(N2CCC3(CC2)CC3)n1 [Compound 46, N-(5-(4-(6-(4,4-difluoropiperidin-1-yl)pyridin-2-yl)-1H-1,2,3-triazol-1-yl)-6-(6-azaspiro[2.5]octan-6-yl)pyridin-2-yl)methanesulfonamide]",9.1
